Measured values as given in US20240216344A1, “THIAZOLIDINEDIONE ANALOGS FOR THE TREATMENT OF NAFLD AND METABOLIC DISEASES” (Cirius Therapeutics, Inc., priority 2019, published 2024).

Assays:
[1] = tested on: mice fed a diet enriched in trans fat, cholesterol and fructose; assay: Preclinical NASH model: trans fat, cholesterol and fructose diet for 19 weeks, NAS and fibrosis histology; type: in vivo; details: 30 mg/kg; treatment of the mice or isolated hepatocytes
Procedure: Mice were fed a diet enriched in trans fat, cholesterol and fructose for 19 weeks to induce hepatic damage, which was assessed by histological changes in the NAS and fibrosis, measured by trichrome staining for collagen. MSDC-0602K (30 mg/kg) was given at either four weeks into the treatment or 16 weeks into the treatment as compared to the vehicle treated mice who were also on the modified diet. The results of mice who were kept on the normal diet are included for comparison. […] The signals for activation of the stellate cells and fibrosis are attenuated by treatment of the mice or isolated hepatocytes with MSDC-0602K.

[2] = tested on: patients with biopsy-proven NASH with fibrosis and no cirrhosis; assay: EMMINENCE Phase 2b trial, liver histology at 12 months; type: in vivo, human; details: for subjects showing NAS histological improvement: PNPLA3 rs738409-G both copies (GG genotype)
Procedure: embodiments, the histological features are measured by a NAFLD Activity Score (NAS). The scoring system comprised 14 histological features, 4 of which are evaluated semi-quantitatively: steatosis (0-3), lobular inflammation (0-2), hepatocellular ballooning (0-2), and fibrosis (0-4). Another nine features are recorded as present or absent. A liver biopsy of the subject is formalin-fixed and paraffin-embedded. Serial sections of the liver biopsy are hematoxylin and eosin (H&E) stained. The liver biopsy stained sections are examined for NAS scores. For example, hepatocellular ballooning is graded from 0 to 2 (0: normal hepatocytes with cuboidal shape and pink eosinophilic cytoplasm; 1: presence of clusters of hepatocytes with a rounded shape and pale cytoplasm usually reticulated. Lobular inflammation is defined as a focus of two or more inflammatory cells within the lobule. Foci are counted at 20 magnification (0: none; 1: 2 foci per 20; 2: >2 foci per 20).
Study Design: EMMINENCE was a randomized, double-blind evaluation of three oral daily doses of MSDC-0602K (62.5 mg, 125 mg and 250 mg) or placebo given for 12 months to adult patients with biopsy-proven NASH with fibrosis and no cirrhosis. The primary efficacy endpoint was assessed at 12 months. Clinic visits were conducted at baseline, 1, 2, 3, 6, 9, and 12 months, followed 2 weeks later by a safety visit. An interim analysis of safety and efficacy not related to the primary and secondary endpoints was conducted when 6 month data were available for 328 patients (see Example 5, above.) Interim results were provided only as summary statistics to avoid any unmasking of the study team or sponsor.
Participants: Eligible patients were at least 18 years old with NASH (NAS≥4; score ≥1 in each component [steatosis, ballooning, inflammation]) with F1 to F3 fibrosis on liver biopsy taken between 9 months prior to screening and randomization according to a central histopathologist.
If no usable liver biopsy was available within 9 months prior to screening, a percutaneous liver biopsy was performed in patients with AST≥20 U/L and FibroScan CAP score ≥270 db/m and kPa≥8.5. Digitized slides were read by a single expert histopathologist according to NASH Clinical Research Network criteria. Baseline biopsies were read first for study qualification and a second time mixed randomly among 12-month biopsies. Fasting blood samples for routine central laboratory analyses were collected at each visit, and frozen samples collected at selected visits for biomarker assays.
Efficacy endpoints: The primary efficacy endpoint was hepatic histological improvement in NAS defined as ≥2-point NAS decrease with a ≥1-point reduction in either ballooning or lobular inflammation and no increase in fibrosis stage at 12 months. Secondary efficacy endpoints included (1) NASH resolution defined as hepatocellular ballooning score of 0 and lobular inflammation score of 0-1 with no increase in fibrosis stage at 12 months, (2) fibrosis improvement defined as ≥1-stage decrease in fibrosis with no worsening of lobular inflammation or hepatocellular ballooning, (3) change from baseline in NAFLD activity score (NAS) and each one of its components (steatosis, lobular inflammation and ballooning) at 12 months, and (4) change from baseline in fibrosis score at 12 months. Exploratory efficacy endpoints included shifts in the central histopathologist's NASH diagnosis confirmation, and changes from baseline to 12 months in markers of glycemic control and insulin sensitivity, liver function/injury, and apoptosis and liver fibrosis.
Using a modified intent-to-treat approach, treated patients were included for analysis in their randomly-assigned treatment groups. Participation of sites with serious GCP or quality concerns were terminated and their data excluded from the analyses. Post-baseline measures through 14 days after the last study drug dose were included. No errors in treatment assignment occurred. […]

[3] = 125 mg and 250 mg combined vs placebo, 12 months
[4] = 125 mg and 250 mg combined, 12 months

COc1cccc(C(=O)COc2ccc(CC3SC(=O)NC3=O)cc2)c1 (stereo not shown) [MSDC-0602K]
signals for activation of the stellate cells and fibrosis [1]: attenuated
confirmed NASH diagnosis at baseline (re-read) not confirmed at 12 months ([2]; 62.5 mg): 32.1%
Fibrosis improvement, adjusted OR ([2]; 62.5 mg vs placebo, 12 months): 1.19
Fibrosis improvement, adjusted risk difference ([2]; 62.5 mg vs placebo, 12 months): 0.028
NAS improvement, adjusted OR ([2]; 62.5 mg vs placebo, 12 months): 0.89
NAS improvement, adjusted risk difference ([2]; 62.5 mg vs placebo, 12 months): −0.020
NASH resolution, adjusted OR ([2]; 62.5 mg vs placebo, 12 months): 1.09
NASH resolution, adjusted risk difference ([2]; 62.5 mg vs placebo, 12 months): 0.013
Fibrosis improvement, % of patients ([2]; 62.5 mg, 12 months): (23.8) %
Fibrosis improvement, n/N ([2]; 62.5 mg, 12 months): 20/84
NAS improvement (primary endpoint), n/N ([2]; 62.5 mg, 12 months): 25/84
NASH resolution, % of patients ([2]; 62.5 mg, 12 months): (20.2) %
NASH resolution, n/N ([2]; 62.5 mg, 12 months): 17/84
adjusted mean difference in NAS change to 12 months vs placebo ([2]; 125 mg): −0.6 points
adjusted mean difference in steatosis change to 12 months vs placebo ([2]; 125 mg): −0.2 points
confirmed NASH diagnosis at baseline (re-read) not confirmed at 12 months ([2]; 125 mg): 26.5%
Fibrosis improvement, adjusted OR [2, 3]: 1.48
Fibrosis improvement, adjusted risk difference [2, 3]: 0.073
NAS improvement, adjusted OR [2, 3]: 1.43
NAS improvement, adjusted risk difference [2, 3]: 0.075
NASH resolution, adjusted OR [2, 3]: 1.66
NASH resolution, adjusted risk difference [2, 3]: 0.093
Fibrosis improvement, % of patients [2, 4]: (28.6) %
Fibrosis improvement, n/N [2, 4]: 48/168
NAS improvement (primary endpoint), % of patients [2, 4]: (36.3) %
NAS improvement (primary endpoint), n/N [2, 4]: 61/168
NASH resolution, % of patients [2, 4]: (29.8) %
NASH resolution, n/N [2, 4]: 50/168
Fibrosis improvement, adjusted OR ([2]; 125 mg vs placebo, 12 months): 1.45
Fibrosis improvement, adjusted risk difference ([2]; 125 mg vs placebo, 12 months): 0.067
NAS improvement, adjusted OR ([2]; 125 mg vs placebo, 12 months): 1.22
NAS improvement, adjusted risk difference ([2]; 125 mg vs placebo, 12 months): 0.044
NASH resolution, adjusted OR ([2]; 125 mg vs placebo, 12 months): 1.50
NASH resolution, adjusted risk difference ([2]; 125 mg vs placebo, 12 months): 0.075
Fibrosis improvement, % of patients ([2]; 125 mg, 12 months): (28.0) %
Fibrosis improvement, n/N ([2]; 125 mg, 12 months): 23/82
NAS improvement (primary endpoint), n/N ([2]; 125 mg, 12 months): 27/82
NASH resolution, % of patients ([2]; 125 mg, 12 months): (28.0) %
NASH resolution, n/N ([2]; 125 mg, 12 months): 23/82
adjusted mean difference in NAS change to 12 months vs placebo ([2]; 250 mg): −0.5 points
adjusted mean difference in steatosis change to 12 months vs placebo ([2]; 250 mg): −0.3 points
confirmed NASH diagnosis at baseline (re-read) not confirmed at 12 months ([2]; 250 mg): 30.2%
Fibrosis improvement, adjusted OR ([2]; 250 mg vs placebo, 12 months): 1.51
Fibrosis improvement, adjusted risk difference ([2]; 250 mg vs placebo, 12 months): 0.077
NAS improvement, adjusted OR ([2]; 250 mg vs placebo, 12 months): 1.64
NAS improvement, adjusted risk difference ([2]; 250 mg vs placebo, 12 months): 0.104
NASH resolution, adjusted OR ([2]; 250 mg vs placebo, 12 months): 1.82
NASH resolution, adjusted risk difference ([2]; 250 mg vs placebo, 12 months): 0.108
Fibrosis improvement, % of patients ([2]; 250 mg, 12 months): (29.1) %
Fibrosis improvement, n/N ([2]; 250 mg, 12 months): 25/86
NAS improvement (primary endpoint), n/N ([2]; 250 mg, 12 months): 34/86
NASH resolution, % of patients ([2]; 250 mg, 12 months): (31.4) %
NASH resolution, n/N ([2]; 250 mg, 12 months): 27/86
subjects showing NAS histological improvement ([2]; 62.5 mg): about 17.9%
subjects showing NAS histological improvement ([2]; 250 mg): about 34.5%
